Where a name gives a salt, the structure may show the parent alone.
Experiment: eutectic enantioexcess (eeeu) / eutectic solubility of (S)-enantiomer form with corresponding racemic compound
Type: physicochemical
Protocol: The majority of racemic mixtures preferentially form racemic compounds (reference Jacques book). The saturation solubility of a racemic compound and the pure enantiomer in the presence of a solvent is known as the eutectic point. The ratio of the solubility, i.e., the “eutectic enantioexcess” (eeeu), is a useful parameter to assess the chiral upgrade capability for a given system. The eeeu is calculated from the relative solubility of the R- and S-enantiomers: eeeu=([major]−[minor])/([major]+[minor]), where [major] is the solubility of the major enantiomer at the eutectic, and [minor] is the solubility of the minor enantiomer at the eutectic. […] The eeeu can be dependent on temperature in all cases. […]
Physical characterization confirmed that the HCl salt of the racemic compound was a hydrate, which was determined to be a thermodynamically stable crystal form. […] The quantities of solvent and equipment capacity needed to provide chiral upgrade would be impractical and uneconomical. For instance, to upgrade from 90% ee to 98% ee, it was calculated to require 200 L solvent per kg starting material.
From this eeeu, it was calculated that achieving an upgrade from 90% ee to 98% ee would require 46 L solvent per kg starting material which, while an improvement, is still undesirable. […]

eutectic enantioexcess (eeeu) (hydrate with corresponding hydrate racemic compound, 22° C.) [%]	absolute solubility	Structure (SMILES)
89.2		O.O=C1CC[C@H](N2Cc3c(OCc4ccc(CN5CCOCC5)cc4)cccc3C2=O)C(=O)N1 [(S)-3-(4-((4-(morpholinomethyl)benzyl)oxy)-1-oxoisoindolin-2-yl)piperidine-2,6-dione hydrate]
	quite low	O=C1CC[C@H](N2Cc3c(OCc4ccc(CN5CCOCC5)cc4)cccc3C2=O)C(=O)N1 [(S)-3-(4-((4-(morpholinomethyl)benzyl)oxy)-1-oxoisoindolin-2-yl)piperidine-2,6-dione hydrochloride]

From patent US9309220B2, “Processes for the preparation of (S)-3-(4- (4-(morpholinomethyl)benzyl)oxy)-1-oxoisoindolin-2-yl)piperidine-2,6-dione and pharmaceutically acceptable forms thereof” (Celgene Corporation, priority 2012, dated 2016)
